Assay results: the supplement of paper PMC10307832

Columns and labels:
Assay in all cases: relative viability (nuclei count vs DMSO), 5 days (fraction); higher = more cells survive
[1] = test system: NCI-H661
Summary of the method: (§1)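 For relative viability, nuclei counts in treated wells were divided by those in vehicle wells. Lung cancer cell lines had been pin-tool dosed in 1536-well plates the day after seeding and cultured for 5 days, then fixed and stained in one step (final 0.05% Triton X-100, 1% formaldehyde, 1 ug/ml Hoechst) and imaged at 4×. Doses were one drug alone or a fixed anchor-drug dose plus five library-drug doses (not always all listed) in √10 steps, and values are duplicate-plate medians.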

[2] = test system: NCI-H522
Summary of the method: as §1

[3] = test system: A549
Summary of the method: as §1

[4] = test system: NCI-H2342
Summary of the method: as §1

[5] = test system: HCC-78
Summary of the method: as §1

[6] = test system: NCI-H2009
Summary of the method: as §1

[7] = test system: NCI-H1623
Summary of the method: as §1

[8] = test system: NCI-H460
Summary of the method: as §1

[9] = test system: NCI-H1648
Summary of the method: as §1

Row | Compound | relative viability ([1]; first compound 0.08 µM) | relative viability ([1]; first compound 0.253 µM) | relative viability ([1]; first compound 0.8 µM) | relative viability ([1]; first compound 2.53 µM) | relative viability ([2]; first compound 0.08 µM) | relative viability ([2]; first compound 0.253 µM) | relative viability ([2]; first compound 0.8 µM) | relative viability ([2]; first compound 2.53 µM) | relative viability ([4]; first compound 0.08 µM) | relative viability ([4]; first compound 0.253 µM) | relative viability ([4]; first compound 0.8 µM) | relative viability ([4]; first compound 2.53 µM) | relative viability ([5]; first compound 0.08 µM) | relative viability ([5]; first compound 0.253 µM) | relative viability ([5]; first compound 0.8 µM) | relative viability ([5]; first compound 2.53 µM) | relative viability ([6]; first compound 0.08 µM) | relative viability ([6]; first compound 0.253 µM) | relative viability ([6]; first compound 0.8 µM) | relative viability ([6]; first compound 2.53 µM) | further results
1 | COc1nc(C)cnc1NS(=O)(=O)c1cccnc1-c1ccc(-c2nnco2)cc1 [Zibotentan] + N=C(N)NC(=N)NCCc1ccccc1 [Phenformin] (partner 250 µM) | 0.267 | 0.252 | 0.281 | 0.296 | 0.614 | 0.648 | 0.672 | 0.723 | 0.782 | 0.595 | 0.603 | 0.559 | 0.778 | 0.598 | 0.581 | 0.59 | 0.494 | 0.469 | 0.542 | 0.481 | relative viability ([3]; first compound 0.08 µM): 0.184; relative viability ([3]; first compound 0.253 µM): 0.136; relative viability ([3]; first compound 0.8 µM): 0.183; relative viability ([3]; first compound 2.53 µM): 0.135; relative viability ([7]; first compound 0.08 µM): 0.592; relative viability ([7]; first compound 0.8 µM): 0.626; relative viability ([7]; first compound 2.53 µM): 0.564; relative viability ([8]; first compound 0.08 µM): 0.56; relative viability ([8]; first compound 0.253 µM): 0.147; relative viability ([8]; first compound 0.8 µM): 0.496; relative viability ([8]; first compound 2.53 µM): 0.532
2 | COc1nc(C)cnc1NS(=O)(=O)c1cccnc1-c1ccc(-c2nnco2)cc1 [Zibotentan] + Cc1cc(Nc2cc(N3CCN(C)CC3)nc(Sc3ccc(NC(=O)C4CC4)cc3)n2)n[nH]1 [Tozasertib] (partner 0.1 µM) | 0.369 | 0.334 | 0.347 | 0.364 | 0.573 | 0.606 | 0.599 | 0.568 | 0.496 | 0.446 | 0.493 | 0.667 | 0.526 | 0.393 | 0.306 | 0.435 | 0.769 | 0.72 | 0.778 | 0.756 | relative viability ([9]; first compound 0.08 µM): 0.499; relative viability ([9]; first compound 0.253 µM): 0.403; relative viability ([9]; first compound 0.8 µM): 0.47; relative viability ([9]; first compound 2.53 µM): 0.576; relative viability ([7]; first compound 0.08 µM): 0.464; relative viability ([7]; first compound 0.8 µM): 0.43; relative viability ([7]; first compound 2.53 µM): 0.427; relative viability ([8]; first compound 0.08 µM): 0.625; relative viability ([8]; first compound 0.253 µM): 0.158; relative viability ([8]; first compound 0.8 µM): 0.106; relative viability ([8]; first compound 2.53 µM): 0.385
3 | O=c1cc(-c2cccc3c2Sc2ccccc2S3)oc(N2CCOCC2)c1 + Cc1cc(Nc2cc(N3CCN(C)CC3)nc(Sc3ccc(NC(=O)C4CC4)cc3)n2)n[nH]1 [Tozasertib] (partner 0.1 µM) | 0.357 | 0.357 | 0.351 | 0.339 | 0.632 | 0.544 | 0.512 | 0.651 | 0.505 | 0.495 | 0.472 | 0.532 | 0.295 | 0.457 | 0.511 | 0.384 | 0.74 | 0.725 | 0.8 | 0.737 | relative viability ([1]; first compound 8 µM): 0.353; relative viability ([2]; first compound 8 µM): 0.562; relative viability ([4]; first compound 8 µM): 0.466; relative viability ([9]; first compound 0.08 µM): 0.492; relative viability ([9]; first compound 0.253 µM): 0.386; relative viability ([9]; first compound 0.8 µM): 0.426; relative viability ([9]; first compound 2.53 µM): 0.411; relative viability ([9]; first compound 8 µM): 0.399; relative viability ([5]; first compound 8 µM): 0.334; relative viability ([6]; first compound 8 µM): 0.578; relative viability ([7]; first compound 0.08 µM): 0.445; relative viability ([7]; first compound 0.253 µM): 0.414; relative viability ([7]; first compound 0.8 µM): 0.393; relative viability ([7]; first compound 2.53 µM): 0.4; relative viability ([7]; first compound 8 µM): 0.43; relative viability ([8]; first compound 0.08 µM): 0.453; relative viability ([8]; first compound 0.253 µM): 0.364; relative viability ([8]; first compound 0.8 µM): 0.147; relative viability ([8]; first compound 2.53 µM): 0.257; relative viability ([8]; first compound 8 µM): 0.166
